In paper PMC10140010 (Investigational New Drugs, 2023):
“And” between values parts separate entries of the source, which are not always exact repeats. Equal values may be shown once. One block for each compound: values may come before it.

Columns and labels:
OATP1B3 = assay: Uptake substrate investigation in HEK293 cells expressing transporter
OAT3 = assay: as above; conditions: ATV 1 μM, no inhibitor, OAT3 pre-test
OAT1 = assay: as above; conditions: ATV 1 μM, no inhibitor, OAT1 pre-test
ALK = conditions: cited from earlier work
[1] = test system: LU-01-0015 (HIP-ALK) patient derived lung-tumor xenografts; assay: LU-01-0015 patient-derived xenograft model (tumor volume, body weight); assay type: in vivo, BALB/c nude mice; conditions: LU-01-0015 and NCI-H3122 xenograft models, all P < 0.05
Procedure: Female BALB/c nude mice (4–6 weeks old) were provided by Shanghai Sipple-Bikai Laboratory Animal Co., Ltd. and Beijing Vital River Laboratory Animal Technology Co., Ltd. The mice were housed in a specific pathogen-free environment under a 12 h light/dark cycle, and had free access to sterile animal feed and water.
PDX and CDX models were used for in vivo studies. Patient-derived tumors tissues were divided into about 30 mm^3 and transplanted into the right dorsal subcutis. Treatment began when the tumor size reached to 200 mm^3. The mice were randomly assignied into the corresponding dosing groups (9 mice in each group). Drugs were deliverd via daily oral for 4 weeks. Tumor size was measured periodically using a digital caliper (Cal Pro, Sylvac, Switzerland), and tumor volume was calculated as 0.5 × length × width^2. For more detailed information, please refer to Supplementary materials. All procedures and protocols of xenograft models were approved by the Institutional Animal Care and Use Committee of WuXi AppTec.
Patient-derived tumor tissue was segmented into small pieces of approximately 20–30 mm^3 and transplanted subcutaneously into the right back of mice. When the tumor volume reached 150-200 mm^3, the mice were randomly divided into corresponding groups (9 mice in each group, female). Administered by gavage once daily for 4 weeks.

BCRP = target: T1, BCRP (Homo sapiens, UniProt Q9UNQ0); assay: ABC efflux transporter inhibitor test on Caco-2 cells (E3S efflux)
T1 sequence (Q9UNQ0 1-655): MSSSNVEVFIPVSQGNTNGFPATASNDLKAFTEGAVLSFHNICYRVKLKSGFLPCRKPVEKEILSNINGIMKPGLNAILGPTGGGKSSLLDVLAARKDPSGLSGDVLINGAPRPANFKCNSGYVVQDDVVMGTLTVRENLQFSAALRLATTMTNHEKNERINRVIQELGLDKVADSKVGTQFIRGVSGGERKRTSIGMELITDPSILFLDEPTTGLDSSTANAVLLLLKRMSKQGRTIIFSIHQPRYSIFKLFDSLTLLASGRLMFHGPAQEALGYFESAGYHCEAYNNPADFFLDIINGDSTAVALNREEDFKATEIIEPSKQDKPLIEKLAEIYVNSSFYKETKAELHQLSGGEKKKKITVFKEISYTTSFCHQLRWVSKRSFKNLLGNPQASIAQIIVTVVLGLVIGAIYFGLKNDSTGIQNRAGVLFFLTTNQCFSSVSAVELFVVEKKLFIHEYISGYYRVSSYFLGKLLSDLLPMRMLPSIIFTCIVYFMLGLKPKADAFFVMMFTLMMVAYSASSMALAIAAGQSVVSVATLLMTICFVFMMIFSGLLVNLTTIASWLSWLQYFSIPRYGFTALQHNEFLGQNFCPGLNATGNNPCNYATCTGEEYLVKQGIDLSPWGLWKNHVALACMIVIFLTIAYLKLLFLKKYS

MATE1 [2] = target: T2, MATE1 (Homo sapiens, UniProt Q96FL8); assay: Substrate investigation in HEK293 cells expressing transporter; assay type: in vitro ADME; parameters: No ESH8G27; host or cells: HEK293; conditions: MPP 10 μM, no inhibitor, pre-test
T2 sequence (Q96FL8 1-570): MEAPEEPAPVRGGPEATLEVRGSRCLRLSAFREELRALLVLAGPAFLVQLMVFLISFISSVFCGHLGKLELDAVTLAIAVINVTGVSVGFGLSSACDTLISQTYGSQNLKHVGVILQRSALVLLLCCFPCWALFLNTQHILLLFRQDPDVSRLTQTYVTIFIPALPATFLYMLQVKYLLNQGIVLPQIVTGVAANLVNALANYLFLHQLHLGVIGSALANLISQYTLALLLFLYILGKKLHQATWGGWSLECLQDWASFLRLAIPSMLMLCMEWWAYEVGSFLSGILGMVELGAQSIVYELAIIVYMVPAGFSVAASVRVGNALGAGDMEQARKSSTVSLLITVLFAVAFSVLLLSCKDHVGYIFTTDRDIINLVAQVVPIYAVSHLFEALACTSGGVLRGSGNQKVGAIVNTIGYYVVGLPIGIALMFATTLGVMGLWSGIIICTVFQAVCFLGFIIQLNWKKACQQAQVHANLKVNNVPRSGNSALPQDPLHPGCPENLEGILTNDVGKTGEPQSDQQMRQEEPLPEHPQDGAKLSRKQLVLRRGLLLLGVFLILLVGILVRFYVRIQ

OCT2 = target: T3, OCT2 (Homo sapiens, UniProt O15244); assay: Uptake substrate investigation in HEK293 cells expressing transporter; assay type: in vitro ADME; conditions: 20 μM, Suppl. Table 11
T3 construct: No ESH9G27; host or cells: HEK293
T3 sequence (O15244 1-555): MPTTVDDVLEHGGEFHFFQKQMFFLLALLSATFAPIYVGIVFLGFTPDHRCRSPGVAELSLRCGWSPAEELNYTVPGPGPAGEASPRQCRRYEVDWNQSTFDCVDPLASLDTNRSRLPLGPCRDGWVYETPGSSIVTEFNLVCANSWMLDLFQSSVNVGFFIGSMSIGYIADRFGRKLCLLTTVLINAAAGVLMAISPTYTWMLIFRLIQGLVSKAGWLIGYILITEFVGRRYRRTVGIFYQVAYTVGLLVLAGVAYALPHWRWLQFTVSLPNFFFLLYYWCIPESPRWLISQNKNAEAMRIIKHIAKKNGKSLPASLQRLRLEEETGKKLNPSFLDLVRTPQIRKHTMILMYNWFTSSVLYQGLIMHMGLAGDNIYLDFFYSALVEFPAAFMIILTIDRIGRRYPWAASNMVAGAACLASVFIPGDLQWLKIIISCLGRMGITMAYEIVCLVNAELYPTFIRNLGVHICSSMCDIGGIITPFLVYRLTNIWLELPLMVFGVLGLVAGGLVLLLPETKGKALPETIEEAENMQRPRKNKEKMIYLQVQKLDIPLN

MATE1 [3] = target: T2, MATE1; assay: Uptake inhibitor investigation in HEK293 cells expressing transporter; conditions: HEK293 cells expressing MATE1, probe MPP, 10 μM
[4] = MOCK293, ATV 1 μM, no inhibitor, OATP1B3 pre-test
[5] = OATP1B1-293 (so in the source), ATV 1 μM, no inhibitor, OATP1B3 pre-test

Compound: CC(C)c1c(C(=O)Nc2ccccc2)c(-c2ccccc2)c(-c2ccc(F)cc2)n1CC[C@@H](O)C[C@@H](O)CC(=O)O [ATV]
Uptake transport activity, Mean (OATP1B3; MOCK293 (OATP1B3 set), 1 μM, Suppl. Table 11): 2.359 pmol/mg protein/min
Uptake transport activity, Mean (OATP1B3; [4]): 3.030 pmol/mg protein/min
Uptake transport activity, Repeat 1 / Repeat 2 (OATP1B3; [4]): 2.810 pmol/mg protein/min and 3.250 pmol/mg protein/min
Uptake transport activity, Mean (OATP1B3; [5]): 13.60 pmol/mg protein/min
Uptake transport activity, Repeat 1 / Repeat 2 (OATP1B3; [5]): 14.30 pmol/mg protein/min and 12.90 pmol/mg protein/min
Uptake transport activity, Net value (OATP1B3; transporter cells vs MOCK293, ATV 1 μM, no inhibitor, OATP1B3 pre-test): 10.6 pmol/mg protein/min
Uptake transport activity, Mean (OAT3; MOCK293): 75.16 pmol/mg protein/min
Uptake transport activity, Repeat 1 / Repeat 2 (OAT3; MOCK293): 59.57 pmol/mg protein/min and 90.74 pmol/mg protein/min
Uptake transport activity, Mean (OAT3; OATP1B1-293 (so in the source)): 727.9 pmol/mg protein/min
Uptake transport activity, Repeat 1 / Repeat 2 (OAT3; OATP1B1-293 (so in the source)): 731.6 pmol/mg protein/min and 724.2 pmol/mg protein/min
Uptake transport activity, Net value (OAT3; transporter cells vs MOCK293): 652.7 pmol/mg protein/min
Uptake transport activity, Mean (OAT1; MOCK293): 3.393 pmol/mg protein/min
Uptake transport activity, Repeat 1 / Repeat 2 (OAT1; MOCK293): 3.281 pmol/mg protein/min and 3.505 pmol/mg protein/min
Uptake transport activity, Mean (OAT1; OATP1B1-293 (so in the source)): 31.40 pmol/mg protein/min
Uptake transport activity, Repeat 1 / Repeat 2 (OAT1; OATP1B1-293 (so in the source)): 36.42 pmol/mg protein/min and 26.39 pmol/mg protein/min
Uptake transport activity, Net value (OAT1; transporter cells vs MOCK293): 28.01 pmol/mg protein/min

Compound: Cc1cc(Nc2ncc(Cl)c(Nc3ccccc3S(=O)(=O)C(C)C)n2)c(OC(C)C)cc1C1CCNCC1 [Ceritinib]
GI50 (ALK; in vitro enzymatic study against ALK, read-out: half-maximal growth inhibition concentration (GI50)): 0.15 nM
fold more potent against ALK than crizotinib (ALK; in vitro enzymatic study): ~ 20 fold
tumor growth inhibition [1]: able to inhibit tumor growth

Compound: C[C@]12CC[C@@H]3c4ccc(OS(=O)(=O)O)cc4CC[C@H]3[C@@H]1CCC2=O [E3S, reference compound]
Exhaust Ratio Mean (BCRP; E3S 10 µM alone, Caco-2): 20.54

inhibition at 10 µM (BCRP; human, Caco-2 cells, probe E3S (10 µM), Exhaust inhibition rate (%), substrate E3S 10 µM, inhibitor 10 µM): 91.6%
Exhaust inhibition rate (%) (BCRP; substrate E3S 10 µM, inhibitor 10 µM): 91.7%
Compound: COc1cc2c(cc1OC)CN(CCc1ccc(NC(=O)c3cccc4c(=O)c5cccc(OC)c5[nH]c34)cc1)CC2 [Elacridar, reference compound]

Compound: C[n+]1ccc(-c2ccccc2)cc1 [MPP]
Uptake transport activity, Mean (MATE1 [2]; MATE1-293): 1162.7 pmol/mg protein/min
Uptake transport activity, Repeat 1 / Repeat 2 (MATE1 [2]; MATE1-293): 942.2 pmol/mg protein/min and 1383.2 pmol/mg protein/min
Ratio of uptake transit activity (MATE1 [2]; MATE1-293 vs MOCK293): 6.86
Uptake transport activity, Net value (MATE1 [2]; MATE1-293 vs MOCK293): 993.3 pmol/mg protein/min
Uptake transport activity, Mean (MATE1 [2]; MOCK293): 169.4 pmol/mg protein/min
Uptake transport activity, Repeat 1 / Repeat 2 (MATE1 [2]; MOCK293): 163.5 pmol/mg protein/min and 175.3 pmol/mg protein/min

Uptake transport activity, Mean (OCT2; MOCK293 (OCT2 set)): 3.503 pmol/mg protein/min
Uptake transport activity, Mean (OCT2; OCT2-293): 82.72 pmol/mg protein/min
Ratio of uptake transit activity (OCT2; OCT2-293 vs MOCK293): 23.61
Uptake transport activity, Net value (OCT2; OCT2-293 vs MOCK293): 79.21 pmol/mg protein/min
Compound: CN(C)C(=N)N=C(N)N [Metformin]

inhibition at 2 μM (MATE1 [3]): 123%
Compound: CCc1nc(N)nc(N)c1-c1ccc(Cl)cc1 [Pyrimethamine]
